Assay results as given in PMC2901826, “Intramolecular Modulation of Serine Protease Inhibitor Activity in a Marine Cyanobacterium with Antifeedant Properties” (Marine Drugs, 2010).

How the values were obtained:
[1] = target: T1, porcine pancreatic elastase (Sus scrofa, UniProt P00772); assay: Elastase inhibition assay; format: biochemical; settings: for IC50: porcine pancreatic elastase, substrate N-succinyl-Ala-Ala-Ala-p-nitroanilide, 15 min pre-incubation, triplicate, read-out: Serine protease inhibitory activity (IC50), Elastase
T1 construct: purchased Elastin Products Company EC134; host or cells: porcine pancreas
Protocol: (§1) Elastase assay was assessed using high-purity porcine pancreatic elastase (Elastin Products Company, EC134, 135 units/mg). The assay buffer used was 1M Tris-HCl (pH 8.0). Assay buffer (79 μL), elastase solution (75 μg/mL in assay buffer, 5 μL) and various concentrations of 1 and 2 (1 μL, dissolved in DMSO) were pre-incubated for 15 min at room temperature in a microtiter plate. After this time, 15 μL of substrate solution (2 mM N-succinyl-Ala-Ala-Ala-p-nitroanilide in assay buffer) was added to each well and the reaction was followed by measuring the absorbance at 405 nm every 30 s. Inhibition of chymotrypsin was determined using the α-chymotrypsin from bovine pancreas (Sigma, C4129, 55 units/mg). The assay buffer was 50 mM Tris-HCl, 100 mM NaCl and 1 mM CaCl2 (pH 7.8). Assay buffer (39 μL), enzyme solution (100 μg/mL in assay buffer, 10 μL), and various concentrations of 1 and 2 (1 μL, dissolved in DMSO) were pre incubated for 30 min at room temperature before substrate solution (1.5 mM N-succinyl-Gly-Gly-Phe-p-nitroanilide in assay buffer) was added. The reaction was followed by measuring the absorbance at 405 nm every 30 s for 30 min. For each assay, enzyme activity of each well was calculated using the initial slope of each progress curve, expressed as a percentage of the slope of uninhibited reaction. All assays were carried out in triplicate at ambient temperature (T = 29 °C). […] Dose–response curve fitting was done using Xlfit Excel, MathlQ Version 2.2.2 (IDBS Ltd.).

[2] = target: T2, α-chymotrypsin from bovine pancreas (Bos taurus, UniProt P00766); assay: Chymotrypsin inhibition assay; format: biochemical; settings: for IC50: α-chymotrypsin from bovine pancreas, substrate N-succinyl-Gly-Gly-Phe-p-nitroanilide, 30 min pre-incubation, triplicate, read-out: Serine protease inhibitory activity (IC50), Chymotrypsin
T2 construct: purchased Sigma C4129; host or cells: bovine pancreas
Protocol: as §1

[3] = target: T2, α-chymotrypsin from bovine pancreas; settings: cited from earlier work

T1 sequence (P00772 27-266): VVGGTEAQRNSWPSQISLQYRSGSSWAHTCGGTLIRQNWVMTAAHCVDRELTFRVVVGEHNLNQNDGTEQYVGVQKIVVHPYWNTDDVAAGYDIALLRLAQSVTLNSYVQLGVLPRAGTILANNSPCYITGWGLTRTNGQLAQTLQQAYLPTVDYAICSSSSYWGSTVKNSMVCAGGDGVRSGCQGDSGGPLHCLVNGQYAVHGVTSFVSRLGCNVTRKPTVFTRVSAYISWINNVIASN

Compound | IC50 [1] [nM] | IC50 [2] [nM] | chymotrypsin inhibition, previously reported [3] | fold reduced activity against elastase ([1]; relative to largamide D (2)) [fold] | fold reduced activity against chymotrypsin ([2]; relative to largamide D (2)) [fold]
CC(C)C[C@@H]1NC(=O)[C@@H](NC(=O)[C@@H](NC(=O)[C@H](C)NC(=O)[C@H](CCCc2ccc(O)cc2)NC(=O)[C@H](O)CO)C(C)C)[C@@H](C)OC(=O)[C@H](C(C)C)NC(=O)[C@H](Cc2ccc(O)c(Br)c2)N(C)C(=O)[C@H]([C@@H](C)O)N2C(=O)[C@H](CC[C@H]2O)NC1=O [Largamide D (2), largamide D] | 45 ± 3 | 83 ± 8 | moderate chymotrypsin inhibitor | – | –
CC(C)CC1NC(=O)C(NC(=O)C(NC(=O)C(C)NC(=O)C(CCCc2ccc(O)cc2)NC(=O)C(O)CO)C(C)C)C(C)OC(=O)C(C(C)C)NC(=O)C(Cc2ccc(O)c(Br)c2)N(C)C(=O)C2C(C)OC3CCC(NC1=O)C(=O)N32 (stereo not shown) [Largamide D oxazolidine (1), largamide D oxazolidine] | 1520 ± 80 | 928 ± 93 | – | 33 | 11
